Structures are written as SMILES. “And” between values parts separate entries of the source, which are not always exact repeats. Equal values may be shown once.

The test system of assay [1] is Plasmodium falciparum.
Description: (§1) In vitro inhibitory activity against chloroquine-resistant Plasmodium falciparum W2 Indochina
In assay [2] the test system is Plasmodium falciparum. The source holds these as a separate data set.
Description: (§2) In vitro inhibitory activity against chloroquine-sensitive Plasmodium falciparum African D6
For assay [3], the system named is Mycobacterium tuberculosis. As to the kind of experiment: In vitro inhibitory activity against Mycobacterium tuberculosis strain H37Rv at a concentration of 6.25 ug/mL. Format: functional.
Assay [4] has as its system Mycobacterium tuberculosis. The assay is described as follows: In vitro anti-mycobacterial activity against Mycobacterium tuberculosis strain H37Rv. In kind it is functional.
Assay [5] has as its system Vero. As to the kind of experiment: In vitro cytotoxicity against VERO cell line. Conditions: Chlorocebus sabaeus. Format: functional, cell-based.
Assay [6] deals with Plasmodium falciparum. The assay is described as follows: microbe, parasite or virus in culture.
Description: as §2
The test system of assay [7] is Plasmodium falciparum. As to the kind of experiment: microbe, parasite or virus in culture. This is another data set of the same source.
Description: as §1

What is called IC50 is the concentration that gives 50% inhibition. Read a high IC50 as weaker potency. The inhibition is the drop in the measured response relative to a control, in per cent. High values mean strong suppression, low ones little suppression. As a reminder, the MIC is the least concentration at which growth counts as inhibited. Read a low MIC as inhibition by little substance. Take `CCNC(=O)CCC(C)C1CC[C@H]2[C@@H]3[C@H](OC(C)=O)C[C@@H]4CC5(CC[C@]4(C)[C@H]3C[C@H](OC(C)=O)[C@]12C)OOC1(CCC(C)CC1)OO5` (stereo in doubt; 14): the IC50 was 3.93 nM in assay [1]; 5.8 nM in assay [2]; 5.37 µg/mL and 8.11 µM in assay [5]. For the same compound, at 6.25 µg/mL the inhibition in assay [3] was 98%. Further, the MIC in assay [4] was 3.13 µg/mL and 4.73 µM.

For the compound `CC(=O)O[C@H]1C[C@H]2[C@@H]([C@H](OC(C)=O)C[C@@H]3CC4(CC[C@@]32C)OOC2(CCC(C)CC2)OO4)[C@@H]2CCC(C(C)CCC(=O)O)[C@@]12C` (stereo in doubt; 4g), the IC50 is 0.98 nM in assay [1] and 1.53 nM in assay [2]. For the same compound, the inhibition at 6.25 µg/mL in assay [3] is 21%. Also, the minimal inhibitory concentration (MIC) in assay [4] was > 6.25 µg/mL and > 9.84 µM.

For `COC(=O)CCC(C)C1CC[C@H]2[C@@H]3[C@H](OC(C)=O)C[C@@H]4CC5(CC[C@]4(C)[C@H]3C[C@H](OC(C)=O)[C@]12C)OOC1(CCC(C)CC1)OO5` (stereo in doubt; 3g), the IC50 amounted to 5.05 nM in assay [1] and 9.99 nM in assay [2]. The compound further gave an inhibition at 6.25 µg/mL in assay [3] of 29%. The minimal inhibitory concentration (MIC) in assay [4] was > 6.25 µg/mL and > 9.63 µM.

`CC(=O)O[C@H]1C[C@H]2[C@@H]([C@H](OC(C)=O)C[C@@H]3CC4(CC[C@@]32C)OOC2(CCC(C)CC2)OO4)[C@@H]2CCC(C(C)CCC(N)=O)[C@@]12C` (stereo in doubt; 12): the IC50 is 0.58 nM in assay [1]; 1.17 nM in assay [2]; 3.49 µg/mL and 5.51 µM in assay [5]. Besides, in assay [3], the inhibition at 6.25 µg/mL amounted to 99%. For the same compound, in assay [4], the MIC was 3.13 µg/mL and 4.94 µM.

As to `CNC(=O)CCC(C)C1CC[C@H]2[C@@H]3[C@H](OC(C)=O)C[C@@H]4CC5(CC[C@]4(C)[C@H]3C[C@H](OC(C)=O)[C@]12C)OOC1(CCC(C)CC1)OO5` (stereo in doubt; 13), the IC50 in assay [1] is 3.61 nM; in assay [2], 5.96 nM; in assay [5] it was 5.69 µg/mL and 8.78 µM. Further, the inhibition at 6.25 µg/mL in assay [3] worked out at 98%. Also, in assay [4], the MIC was 6.25 µg/mL and 9.65 µM.

In the case of `CO[C@H]1/C=C/O[C@@]2(C)Oc3c(C)c(O)c4c(O)c(c(/C=N/N5CCN(C)CC5)c(O)c4c3C2=O)NC(=O)/C(C)=C\C=C\[C@H](C)[C@H](O)[C@@H](C)[C@@H](O)[C@@H](C)[C@H](OC(C)=O)[C@@H]1C` [RIFAMPIN], the MIC in assay [4] is 0.12 µg/mL and 0.15 µM. In assay [5], the IC50 was 111 µg/mL and 134 µM.

`NNC(=O)c1ccncc1` [ISONIAZID]: the MIC in assay [4] is 0.05 µg/mL and 0.36 µM. Moreover, in assay [5], the IC50 was > 1000 µg/mL and > 7 mM.

Turning to `CCCNC(=O)CCC(C)C1CC[C@H]2[C@@H]3[C@H](OC(C)=O)C[C@@H]4CC5(CC[C@]4(C)[C@H]3C[C@H](OC(C)=O)[C@]12C)OOC1(CCC(C)CC1)OO5` (stereo in doubt; 15), the IC50 was 3.82 nM in assay [1]; 3.22 nM in assay [2]; 8.34 µg/mL and 12.3 µM in assay [5]. This compound also had an inhibition at 6.25 µg/mL in assay [3] of 94%. Moreover, the MIC in assay [4] was 6.25 µg/mL and 9.25 µM.

Take `C[C@@H]1CC[C@H]2[C@@H](C)C(=O)O[C@@H]3O[C@@]4(C)CC[C@@H]1[C@]32OO4` [ARTEMISININ]: the IC50 in assay [6] was found to be 8.4 nM; in assay [7], 7.3 nM.

Regarding `CC(=O)O[C@H]1C[C@H]2[C@@H]([C@H](OC(C)=O)C[C@@H]3CC4(CC[C@@]32C)OOC2(CCCCC2C)OO4)[C@@H]2CCC(C(C)CCC(N)=O)[C@@]12C` (stereo partly drawn), the IC50 came out at 17.3 nM in assay [6] and 11.1 nM in assay [7].

Turning to `CC(=O)O[C@H]1C[C@H]2[C@@H]([C@H](OC(C)=O)C[C@@H]3CC4(CC[C@@]32C)OOC2(CCCCC2)OO4)[C@@H]2CCC(C(C)CCC(=O)O)[C@@]12C` (stereo partly drawn), the values for the IC50 in assay [6] and in assay [7] were 11.8 nM and 19.2 nM, respectively.

Values taken from ChEMBL document CHEMBL1135585, “Mixed steroidal 1,2,4,5-tetraoxanes: antimalarial and antimycobacterial activity” (J Med Chem, 2002).
